# Assay results: patent US8735361B2, “C1ORF59 peptides and vaccines including the same” (Oncotherapy Science, Inc., priority 2008, dated 2014)
# Legend:
# peptide-pulsed A24 LCL [1] = assay: IFN-gamma ELISA assay of expanded CTL lines (HLA-A*2402); format: cell-based, human; conditions: target cells pulsed with corresponding peptide compared to target cells without peptide pulse
# Procedure: CTLs were expanded in culture using the method similar to the one described by Riddell et al. (Walter E A et al., N Engl J Med 1995 Oct. 19, 333(16): 1038-44; Riddell S R et al., Nat Med 1996 February, 2(2): 216-23). A total of 5×10^4 CTLs were suspended in 25 ml of AIM-V/5% AS medium with 2 kinds of human B-lymphoblastoid cell lines, inactivated by MMC, in the presence of 40 ng/ml of anti-CD3 monoclonal antibody (Pharmingen). One day after initiating the cultures, 120 IU/ml of IL-2 were added to the cultures. The cultures were fed with fresh AIM-V/5% AS medium containing 30 IU/ml of IL-2 on days 5, 8 and 11 (Tanaka H et al., Br J Cancer 2001 Jan. 5, 84(1): 94-9; Umano Y et al., Br J Cancer 2001 Apr. 20, 84(8): 1052-7; Uchida N et al., Clin Cancer Res 2004 Dec. 15, 10(24): 8577-86; Suda T et al., Cancer Sci 2006 May, 97(5): 411-9; Watanabe T et al., Cancer Sci 2005 August, 96(8): 498-506).
# (§1) To examine specific CTL activity, interferon (IFN)-gamma enzyme-linked immunospot (ELISPOT) assay and IFN-gamma enzyme-linked immunosorbent assay (ELISA) were performed. Specifically, peptide-pulsed A24 LCL (1×10^4/well) was prepared as stimulator cells. Cultured cells in 48 wells were used as responder cells. IFN-gamma ELISPOT assay and IFN-gamma ELISA assay were performed under manufacture procedure.
# [2] = tested on: COS7 cells transfected with C1orf59 and HLA-A*2402; assay: Specific CTL activity against target cells exogenously expressing C1orf59 and HLA-A*2402; format: cell-based, African green monkey
# Text: The cDNA encoding an open reading frame of target genes or HLA-A24 was amplified by PCR. The PCR-amplified product was cloned into pCAGGS vector. The plasmids were transfected into COS7, which is the target genes and HLA-A24-null cell line, using lipofectamine 2000 (Invitrogen) according to the manufacturer's recommended procedures. After 2 days from transfection, the transfected cells were harvested with versene (Invitrogen) and used as the target cells (5×10^4 cells/well) for CTL activity assay.
# The established CTL lines raised against these peptides were examined for their ability to recognize target cells that express C1orf59 and HLA-A*2402 molecule. Specific CTL activity against COS7 cells which transfected with both the full length of C1orf59 and HLA-A*2402 molecule gene (a specific model for the target cells that express C1orf59 and HLA-A*2402 gene) was tested using the CTL lines raised by corresponding peptide as the effecter cells. COS7 cells transfected with either full length of C1orf59 genes or HLA-A*2402 were prepared as control.
# peptide-pulsed A24 LCL [3] = assay: In vitro CTL induction with HLA-A*2402 restricted peptides, IFN-gamma ELISPOT assay; format: cell-based, human; conditions: CTLs from HLA-A*2402 positive donor stimulated with peptide-pulsed DCs; compared to control wells
# Text: Monocyte-derived dendritic cells (DCs) were used as antigen-presenting cells (APCs) to induce cytotoxic T lymphocyte (CTL) responses against peptides presented on human leukocyte antigen (HLA). DCs were generated in vitro as described elsewhere (Nakahara S et al., Cancer Res 2003 Jul. 15, 63(14): 4112-8). Specifically, peripheral blood mononuclear cells (PBMCs) isolated from a normal volunteer (HLA-A*2402 positive) by Ficoll-Plaque (Pharmacia) solution were separated by adherence to a plastic tissue culture dish (Becton Dickinson) so as to enrich them as the monocyte fraction. The monocyte-enriched population was cultured in the presence of 1000 U/ml of granulocyte-macrophage colony-stimulating factor (GM-CSF) (R&D System) and 1000 U/ml of interleukin (IL)-4 (R&D System) in AIM-V Medium (Invitrogen) containing 2% heat-inactivated autologous serum (AS). After 7 days of culture, the cytokine-induced DCs were pulsed with 20 micro gram/ml of each of the synthesized peptides in the presence of 3 micro gram/ml of beta 2-microglobulin for 3 hrs at 37 degrees C. in AIM-V Medium. The generated cells appeared to express DC-associated molecules, such as CD80, CD83, CD86 and HLA class II, on their cell surfaces (data not shown). These peptide-pulsed DCs were then inactivated by X-irradiated (20 Gy) and mixed at a 1:20 ratio with autologous CD8+ T cells, obtained by positive selection with CD8 Positive Isolation Kit (Dynal). These cultures were set up in 48-well plates (Corning); each well contained 1.5×10^4 peptide-pulsed DCs, 3×10^5 CD8+ T cells and 10 ng/ml of IL-7 (R&D System) in 0.5 ml of AIM-V/2% AS medium. Three days later, these cultures were supplemented with IL-2 (CHIRON) to a final concentration of 20 IU/ml. On day 7 and 14, the T cells were further stimulated with the autologous peptide-pulsed DCs. The DCs were prepared each time by the same way described above. CTL was tested against peptide-pulsed A24 LCL or T2 cells after the 3rd round of peptide stimulation on day 21 (Tanaka H et al., Br J Cancer 2001 Jan. 5, 84(1): 94-9; Umano Y et al., Br J Cancer 2001 Apr. 20, 84(8): 1052-7; Uchida N et al., Clin Cancer Res 2004 Dec. 15, 10(24): 8577-86; Suda T et al., Cancer Sci 2006 May, 97(5): 411-9; Watanabe T et al., Cancer Sci 2005 August, 96(8): 498-506)
# as §1
# peptide-pulsed A24 LCL [4] = assay: IFN-gamma ELISA assay of CTL clones established by limiting dilution (HLA-A*2402); format: cell-based, human; conditions: CTL clones against target cells pulsed with peptide
# Procedure: The dilutions were made to have 0.3, 1, and 3 CTLs/well in 96 round-bottomed micro titer plate (Nalge Nunc International). CTLs were cultured with 1×10^4 cells/well of 2 kinds of human B-lymphoblastoid cell lines, 30 ng/ml of anti-CD3 antibody, and 125 U/ml of IL-2 in a total of 150 microlitter/well of AIM-V Medium containing 5% AS. 50 microlitter/well of IL-2 were added to the medium 10 days later so to reach a final concentration of 125 U/ml IL-2. CTL activity was tested on the 14th day, and CTL clones were expanded using the same method as described above (Uchida N et al., Clin Cancer Res 2004 Dec. 15, 10(24): 8577-86; Suda T et al., Cancer Sci 2006 May, 97(5): 411-9; Watanabe T et al., Cancer Sci 2005 August, 96(8): 498-506).
# as §1
sequence,measurement,setting,value
GYCTQIGIF [SEQ ID NO: 26],IFN-gamma production of CTL lines by ELISA,peptide-pulsed A24 LCL [1],potent IFN-gamma production
same,Specific CTL activity against control COS7 cells,[2]; COS7 transfected with either full length C1orf59 or HLA-A*2402 alone,no significant specific CTL activity
same,Specific CTL activity against COS7 cells expressing both C1orf59 and HLA-A*2402,[2]; CTLs raised by the peptide as effector cells,potent CTL activity
same,"Peptide specific CTL activity, IFN-gamma production by ELISPOT",peptide-pulsed A24 LCL [3],potent IFN-gamma production
same,IFN-gamma production of CTL clones by ELISA,peptide-pulsed A24 LCL [4],Potent IFN-gamma productions
